Like-named read-outs stand apart in the source and are kept apart here.
How the values were obtained:
[1] = target: human EGFR L858R/T790M (NIH/3T3 cells) (Homo sapiens, UniProt P00533, L858R/T790M); assay: EGFR target modulation in engineered NIH/3T3 cell lines (phospho-EGFR Y1068 AlphaLISA), EGFR L858R/T790M; assay type: cell-based; settings: engineered NIH/3T3 cells, read-out: NIH3T3 IC50 (μM) EGFR (L858R/T790M)
Method: (§1) EGFR Target Modulation in Engineered NIH/3T3 Cell Lines Tissue Culture.
(§2) The cells were harvested with 0.05% Trypsin/EDTA (Hyclone #SH30236.01), re-suspended in 5% FBS/DMEM Pen/Strep without Puromycin and plated at 9,000 cells per well in 50 μl of media in a 384-well black plate with clear bottoms (Greiner #789068G). The cells were allowed to incubate overnight in a 37° C., 5% CO2 humidified tissue culture incubator. A 12-point test compound curve was prepared by serial diluting a 10 μM stock 1:3 in DMSO in a 384-well compound plate (Greiner #789201L). The serial diluted compounds were transferred to the plate containing cells by using a 50 nl Pin Head device (Perkin Elmer) and the cells were placed back in the incubator for 3 hours. Only the EGFR WT-expressing cells were induced with 50 ng/ml EGF (Preprotech #AF-100-15) for 5 minutes before lysis. […] The plates were shaken at 4° C. for 5 minutes with foil top at maximum speed. […] The plates were sealed with a foil top and frozen at −80° C. and thawed when needed.
(§3) The frozen aliquots were thawed and briefly centrifuged. All antibodies and beads were diluted in 1× AlphaLISA HiBlock Buffer (PE #AL004C). […] Goat anti-total EGFR (R&D Systems #AF231) was added and allowed to equilibrate for 1 hour at room temperature at 1 nM final concentration.
(§4) With these parameters, the IC50's for each compound in each cell line was calculated using non-linear curve fitting analysis.

[2] = target: human EGFR WT (NIH/3T3 cells, EGF-induced) (Homo sapiens, UniProt P00533); assay: EGFR target modulation in engineered NIH/3T3 cell lines (phospho-EGFR Y1068 AlphaLISA), EGFR WT; assay type: cell-based; settings: engineered NIH/3T3 cells, read-out: NIH3T3 IC50 (μM) EGFR (WT)
Chain of human EGFR WT (NIH/3T3 cells, EGF-induced) (P00533 25-1210): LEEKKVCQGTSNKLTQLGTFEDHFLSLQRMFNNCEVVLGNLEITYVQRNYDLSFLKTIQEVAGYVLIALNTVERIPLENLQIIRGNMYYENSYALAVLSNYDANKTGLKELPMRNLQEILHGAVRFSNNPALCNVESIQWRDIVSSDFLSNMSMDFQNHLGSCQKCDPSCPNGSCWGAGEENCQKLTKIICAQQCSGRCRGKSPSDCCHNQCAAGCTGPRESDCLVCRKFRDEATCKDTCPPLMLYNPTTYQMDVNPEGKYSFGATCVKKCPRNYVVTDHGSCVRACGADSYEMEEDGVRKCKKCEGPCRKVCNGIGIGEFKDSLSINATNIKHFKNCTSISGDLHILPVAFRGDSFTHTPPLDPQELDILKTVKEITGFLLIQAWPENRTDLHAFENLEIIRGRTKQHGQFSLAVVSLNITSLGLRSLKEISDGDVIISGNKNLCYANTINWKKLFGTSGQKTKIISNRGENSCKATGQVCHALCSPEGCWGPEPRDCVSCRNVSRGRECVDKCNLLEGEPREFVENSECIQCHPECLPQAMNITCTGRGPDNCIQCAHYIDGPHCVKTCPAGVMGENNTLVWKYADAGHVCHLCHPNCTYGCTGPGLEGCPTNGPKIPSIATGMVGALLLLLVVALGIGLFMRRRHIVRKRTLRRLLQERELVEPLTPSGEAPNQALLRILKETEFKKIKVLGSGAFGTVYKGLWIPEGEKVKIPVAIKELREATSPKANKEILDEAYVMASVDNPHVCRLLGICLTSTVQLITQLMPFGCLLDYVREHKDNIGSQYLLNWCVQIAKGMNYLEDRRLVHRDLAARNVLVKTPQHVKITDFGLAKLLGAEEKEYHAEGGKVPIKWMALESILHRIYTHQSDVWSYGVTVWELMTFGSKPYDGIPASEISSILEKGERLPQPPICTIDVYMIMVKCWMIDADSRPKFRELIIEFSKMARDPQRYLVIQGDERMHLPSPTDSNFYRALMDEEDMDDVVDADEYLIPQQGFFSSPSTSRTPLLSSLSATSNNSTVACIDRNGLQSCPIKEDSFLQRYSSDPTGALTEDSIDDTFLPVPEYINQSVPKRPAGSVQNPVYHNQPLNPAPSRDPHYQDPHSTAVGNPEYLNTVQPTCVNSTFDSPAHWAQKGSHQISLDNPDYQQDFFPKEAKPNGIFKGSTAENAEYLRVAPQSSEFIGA
Method: as §1, §2, §3, §4

EGFR(L858R/T790M) = target: T1, EGFR(L858R/T790M) (Homo sapiens, UniProt P00533, L858R/T790M); assay: EGFR biochemical assay (HTRF), IC50 determinations
T1 construct: purchased from Carna (GST-a.a. 669-1210)
T1 sequence (P00533 669-1210 T790M/L858R): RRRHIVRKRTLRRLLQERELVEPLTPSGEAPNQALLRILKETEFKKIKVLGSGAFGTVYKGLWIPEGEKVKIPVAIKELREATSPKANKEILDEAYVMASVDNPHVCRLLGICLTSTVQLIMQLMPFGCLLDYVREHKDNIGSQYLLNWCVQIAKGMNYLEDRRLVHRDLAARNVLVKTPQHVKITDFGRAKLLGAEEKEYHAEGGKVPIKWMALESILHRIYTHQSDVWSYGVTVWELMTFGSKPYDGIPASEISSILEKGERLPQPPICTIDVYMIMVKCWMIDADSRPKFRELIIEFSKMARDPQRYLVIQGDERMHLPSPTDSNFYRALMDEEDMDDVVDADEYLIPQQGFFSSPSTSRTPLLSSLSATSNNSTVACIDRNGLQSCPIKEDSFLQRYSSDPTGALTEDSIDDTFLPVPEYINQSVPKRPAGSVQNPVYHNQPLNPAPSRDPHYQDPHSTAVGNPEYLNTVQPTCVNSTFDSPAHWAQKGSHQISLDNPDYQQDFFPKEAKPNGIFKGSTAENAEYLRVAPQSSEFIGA
Method: All EGFR biochemical assays were carried out by HTRF method. […] The substrate peptide Biotin-TK-peptide was purchased from Cis-Bio. […] All reactions were carried out at room temperature in white ProxiPlate™ 384-well Plus plates (PerkinElmer) and were quenched with 5 μL of 0.2 M EDTA at 60 min. Five L of the detection reagents (2.5 ng PT66K and 0.05 μg SAXL per well) were added, the plates were incubated at room temperature for 1 h and then read in EnVision reader. […] For no-preincubation condition, the compounds were added to the assay solution containing ATP and peptide, and the reaction was initiated by addition of enzyme. For pre-incubation conditions, the compounds were added to the assay solution containing enzyme and peptide, and pre-incubated at room temperature for desired period of time, then the reaction was initiated by addition of ATP.

[3] = target: human EGFR L858R (NIH/3T3 cells) (Homo sapiens, UniProt P00533, L858R); assay: EGFR target modulation in engineered NIH/3T3 cell lines (phospho-EGFR Y1068 AlphaLISA), EGFR L858R; assay type: cell-based; settings: engineered NIH/3T3 cells, read-out: NIH3T3 IC50 (μM) EGFR (L858R)
Chain of human EGFR L858R (NIH/3T3 cells) (P00533 25-1210 L858R): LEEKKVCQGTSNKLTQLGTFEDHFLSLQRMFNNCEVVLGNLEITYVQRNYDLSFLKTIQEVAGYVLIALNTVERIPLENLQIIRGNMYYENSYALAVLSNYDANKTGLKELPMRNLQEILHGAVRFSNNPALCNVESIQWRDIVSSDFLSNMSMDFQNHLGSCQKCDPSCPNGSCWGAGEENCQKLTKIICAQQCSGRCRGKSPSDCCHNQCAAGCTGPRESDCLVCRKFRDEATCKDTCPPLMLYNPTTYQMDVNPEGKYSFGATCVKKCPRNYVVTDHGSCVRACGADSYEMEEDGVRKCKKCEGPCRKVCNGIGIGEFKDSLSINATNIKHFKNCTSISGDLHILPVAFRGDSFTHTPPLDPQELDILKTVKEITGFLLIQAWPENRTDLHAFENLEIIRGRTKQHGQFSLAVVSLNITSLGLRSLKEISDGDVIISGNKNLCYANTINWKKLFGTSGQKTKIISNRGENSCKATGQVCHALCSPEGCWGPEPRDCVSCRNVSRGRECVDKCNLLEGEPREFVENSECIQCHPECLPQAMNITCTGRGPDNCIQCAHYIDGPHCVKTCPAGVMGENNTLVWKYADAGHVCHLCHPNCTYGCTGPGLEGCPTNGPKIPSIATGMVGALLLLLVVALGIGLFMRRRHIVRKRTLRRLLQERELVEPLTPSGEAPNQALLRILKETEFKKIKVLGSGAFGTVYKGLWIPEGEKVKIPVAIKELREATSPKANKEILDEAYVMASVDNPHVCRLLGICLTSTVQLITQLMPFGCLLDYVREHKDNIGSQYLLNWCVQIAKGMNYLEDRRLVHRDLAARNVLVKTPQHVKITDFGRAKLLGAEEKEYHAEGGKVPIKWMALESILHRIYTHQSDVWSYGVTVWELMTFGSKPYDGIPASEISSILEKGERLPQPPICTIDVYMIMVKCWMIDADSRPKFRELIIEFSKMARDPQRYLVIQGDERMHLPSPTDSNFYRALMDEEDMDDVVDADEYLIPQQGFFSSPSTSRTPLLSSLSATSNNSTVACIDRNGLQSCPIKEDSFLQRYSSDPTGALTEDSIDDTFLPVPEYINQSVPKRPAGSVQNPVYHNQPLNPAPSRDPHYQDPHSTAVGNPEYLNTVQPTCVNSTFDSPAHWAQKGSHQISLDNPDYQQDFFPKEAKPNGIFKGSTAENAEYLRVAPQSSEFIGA
Method: as §1, §2, §3, §4

[4] = EGFR (L858R/T790M) with 90 min pre-incubation, read-out: IC50 (μM) Column B
[5] = EGFR (L858R/T790M) with no pre-incubation, read-out: IC50 (μM) Column A

Chain of human EGFR L858R/T790M (NIH/3T3 cells) (P00533 25-1210 T790M/L858R): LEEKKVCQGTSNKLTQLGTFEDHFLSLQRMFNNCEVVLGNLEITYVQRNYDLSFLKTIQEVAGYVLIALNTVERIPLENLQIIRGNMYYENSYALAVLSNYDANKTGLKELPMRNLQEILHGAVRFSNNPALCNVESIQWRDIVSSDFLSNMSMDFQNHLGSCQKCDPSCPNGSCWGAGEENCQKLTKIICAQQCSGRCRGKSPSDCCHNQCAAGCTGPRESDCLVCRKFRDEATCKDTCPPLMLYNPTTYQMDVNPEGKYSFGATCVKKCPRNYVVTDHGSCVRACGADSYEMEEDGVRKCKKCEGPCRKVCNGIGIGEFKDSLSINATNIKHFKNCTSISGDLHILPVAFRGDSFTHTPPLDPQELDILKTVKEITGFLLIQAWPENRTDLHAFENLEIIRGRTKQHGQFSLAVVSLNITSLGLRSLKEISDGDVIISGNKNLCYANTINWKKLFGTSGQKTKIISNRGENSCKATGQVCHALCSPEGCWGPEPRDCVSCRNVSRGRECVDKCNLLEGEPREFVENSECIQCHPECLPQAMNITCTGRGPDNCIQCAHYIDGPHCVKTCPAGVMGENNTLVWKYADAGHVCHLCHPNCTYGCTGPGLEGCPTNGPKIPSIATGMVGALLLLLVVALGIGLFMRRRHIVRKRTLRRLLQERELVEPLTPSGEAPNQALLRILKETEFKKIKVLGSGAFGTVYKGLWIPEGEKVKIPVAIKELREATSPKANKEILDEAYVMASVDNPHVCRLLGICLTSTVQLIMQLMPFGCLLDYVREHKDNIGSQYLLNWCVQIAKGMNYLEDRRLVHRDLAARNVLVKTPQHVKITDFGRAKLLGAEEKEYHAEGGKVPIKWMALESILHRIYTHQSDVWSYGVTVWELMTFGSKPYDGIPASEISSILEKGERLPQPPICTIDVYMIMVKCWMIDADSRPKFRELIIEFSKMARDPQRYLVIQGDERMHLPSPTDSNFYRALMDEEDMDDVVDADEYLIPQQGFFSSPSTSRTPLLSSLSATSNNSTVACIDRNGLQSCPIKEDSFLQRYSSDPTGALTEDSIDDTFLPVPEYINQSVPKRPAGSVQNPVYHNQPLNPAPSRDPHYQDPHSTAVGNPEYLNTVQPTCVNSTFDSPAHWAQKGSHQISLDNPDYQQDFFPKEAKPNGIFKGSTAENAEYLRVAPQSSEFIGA

IC50 [1] [µM] | IC50 [2] [µM] | IC50 (EGFR(L858R/T790M); [4]) [µM] | IC50 (EGFR(L858R/T790M); [5]) [µM] | IC50 [3] [µM] | Compound
 |  | 0.193 | 0.99 |  | C/C=C/C(=O)N1CC(n2c(NC(=O)c3cccc(C(F)(F)F)c3)nc3cc(C)ccc32)C1 [Example 17-101]
0.097 | 7.8 | 0.01 | 0.247 | 0.68 | C=CC(=O)N1CCOCC(n2c(NC(=O)c3ccccc3)nc3cccc(-c4nc(C)no4)c32)C1 (centres unmarked) [Example 17-141]
0.02 | 0.61 | < 0.001 | 0.018 | 0.023 | Cc1cccc2nc(NC(=O)c3cc(Cl)nc(OC(F)(F)F)c3)n([C@@H]3CCCCN(C(=O)/C=C/CN(C)C)C3)c12 [Example 17-104]
0.84 | > 10 | 0.285 | 6.6 | 0.67 | C=CC(=O)N1CCCC(n2c(NC(=O)c3cccc(C(F)(F)F)c3)nc3c2CN(C)CC3)C1 (centres unmarked) [Example 17-173]
0.002 | 0.186 | < 0.001 | 0.007 | 0.006 | C=CC(=O)N1CCCC[C@@H](n2c(NC(=O)c3ccccc3)nc3cc(COCCOC)cc(C)c32)C1 [Example 17-128]
0.173 | 8.7 | 0.268 | 1.75 | 1.4 | C=CC(=O)N1CCCC(n2c(NC(=O)c3cccc(C(F)(F)F)c3)nc3c2CN(C(C)=O)CC3)C1 (centres unmarked) [Example 17-172]
0.45 | > 10 | 0.098 | 0.7 | 2.2 | C=CC(=O)N1CCCC[C@H](n2c(NC(=O)c3cccc(C(F)(F)F)c3)nc3cccc(C)c32)C1 (single isomer, unassigned) [Example 21-3]
0.002 | 0.311 | < 0.001 | 0.005 | 0.01 | C=CC(=O)N1CCCC[C@@H](n2c(NC(=O)c3ccccc3)nc3cccc(CO)c32)C1 [Example 17-131]
0.46 | > 10 | 0.119 | 10.8 | 4.7 | C=CC(=O)N1CCC[C@@H](n2c(NC(=O)c3cccc(C(F)(F)F)c3)nc3cc(C(=O)OC)ccc32)C1 [Example 17-110]
0.138 | 0.98 | 0.033 | 0.62 | 0.211 | Cc1ncc(C(=O)Nc2nc3cccc(C)c3n2C2CCCCN(C(=O)/C=C/CN(C)C)C2)s1 (single isomer, unassigned) [Example 21-8A]
0.008 | 0.47 | < 0.001 | 0.011 | 0.019 | CN(C)C/C=C/C(=O)N1CCCCC(n2c(NC(=O)c3cccc(C(F)(F)F)c3)nc3cc(CO)cc(C#N)c32)C1 (centres unmarked) [Example 17-116]
0.043 | > 9.1 | 0.005 | 0.147 | 0.305 | C=CC(=O)N1CCCCC(n2c(NC(=O)c3ccccc3)nc3cccc(C(=O)NCCS(C)(=O)=O)c32)C1 (centres unmarked) [Example 17-139]
6.5 | 8.2 | 0.03 | 1.76 | > 10 | C=CC(=O)N1CCCCC(n2c(NC(=O)c3ccccc3)nc3cccc(C(=O)NCCC(=O)O)c32)C1 (centres unmarked) [Example 17-136]
0.045 | > 10 | 0.008 | 0.62 | 0.4 | C=CC(=O)N1CCCCC(n2c(NC(=O)c3ccccc3)nc3cccc(C(=O)NCC(=O)OC)c32)C1 (centres unmarked) [Example 17-135]
0.026 |  |  |  | 0.34 | C=CC(=O)N1CCCC(n2c(NC(=O)c3cccc(C(F)(F)F)c3)nc3cc(C)ccc32)C1 (centres unmarked) [Example 17-100]
 |  | 0.38 | 0.32 |  | C=CC(=O)N1CCCC(n2c(NC(=O)c3cccc(C(F)(F)F)c3)nc3cc(C)ccc32)CC1 (centres unmarked) [Example 17-107]

The next lines start with the molecule.

Compound | IC50 [1] [µM] | IC50 [2] [µM] | IC50 (EGFR(L858R/T790M); [4]) [µM] | IC50 (EGFR(L858R/T790M); [5]) [µM] | IC50 [3] [µM]
Cc1cccc2nc(NC(=O)c3ccnc(N4CCCCC4)c3)n(C3CCCCN(C(=O)/C=C/CN(C)C)C3)c12 (centres unmarked) [Example 17-57] | 0.002 | 0.02 | < 0.001 | < 0.001 | < 0.001
C=C(CN(CC)CC)C(=O)N1CCCC[C@@H](n2c(NC(=O)c3ccnnc3)nc3cccc(C)c32)C1 [Example 17-92] | 0.057 | 1.83 | 0.012 | 0.213 | 0.043
Cc1cccc2nc(NC(=O)c3ccnc(C(C)(C)C)c3)n(C3CCCCN(C(=O)/C=C/CN(C)C)C3)c12 (centres unmarked) [Example 17-61] | 0.003 | 0.011 | < 0.001 | 0.004 | < 0.001
Cc1cccc2nc(NC(=O)c3ccnc(Cl)c3)n([C@@H]3CCCCN(C(=O)/C=C/CN(C)C)C3)c12 [Example 17-73] | < 0.001 | 0.016 | < 0.001 | < 0.001 | 0.001
Cc1cccc2nc(NC(=O)c3ccccc3F)n(C3CCCCN(C(=O)/C=C/CN(C)C)C3)c12 (centres unmarked) [Example 17-3] | 0.015 | 0.86 | < 0.001 | 0.026 | 0.034
Cc1cccc2nc(NC(=O)c3cnccn3)n(C3CCCCN(C(=O)/C=C/CN(C)C)C3)c12 (centres unmarked) [Example 17-38] | 0.049 | 1.92 | 0.006 | 0.117 | 0.093
C=CC(=O)N1CCC[C@@H](n2c(NC(=O)c3cccc(C(F)(F)F)c3)nc3cc(C)ccc32)C1 [17-105, 21-6] |  |  | 0.002 | 0.1 | 
C=CC(=O)N1CCCCC(n2c(NC(=O)c3cccc(C(F)(F)F)c3)nc3cccc(C)c32)C1 (centres unmarked) [Example 17-10] | 0.003 | 1.65 | < 0.001 | 0.014 | 0.007
Cc1cccc(C(=O)Nc2nc3cccc(C)c3n2C2CCCCN(C(=O)/C=C/CN(C)C)C2)c1 (centres unmarked) [Example 17-41] | 0.004 | 0.44 | < 0.001 | 0.008 | 0.012
Cc1cccc2nc(NC(=O)c3ccc4nccn4c3)n(C3CCCCN(C(=O)/C=C/CN(C)C)C3)c12 (centres unmarked) [Example 17-55] | 0.003 | 0.022 | < 0.001 | 0.007 | 0.002
C=CC(=O)N1CCC(n2c(NC(=O)c3cccc(C(F)(F)F)c3)nc3cc(C)ccc32)C1 (centres unmarked) [Example 17-98] |  |  | 0.058 | 0.84 | 
Cc1cccc2nc(NC(=O)c3ccnc(C(F)(F)F)c3)n([C@@H]3CCCCN(C(=O)/C=C/CN(C)C)C3)c12 [8, 21-2] |  |  | < 0.001 | < 0.001 | 
Cc1cccc2nc(NC(=O)c3ccnc(-n4cnnn4)c3)n(C3CCCCN(C(=O)/C=C/CN(C)C)C3)c12 (centres unmarked) [Example 17-60] | 0.002 | 0.012 |  |  | 0.002
C=CC(=O)N1CC(n2c(NC(=O)c3cccc(C(F)(F)F)c3)nc3cc(C)ccc32)C1 [Example 17-99] |  |  | 0.097 | 1.22 | 
C=CC(=O)N1CCC(n2c(NC(=O)c3cccc(C(F)(F)F)c3)nc3cc(C)ccc32)CC1 [Example 17-97] |  |  | 0.4 | 0.204 | 
Cc1ncccc1C(=O)Nc1nc2cccc(C)c2n1C1CCCCN(C(=O)/C=C/CN(C)C)C1 (centres unmarked) [Example 17-62] |  | 2.5 | 0.006 | 0.14 | 0.234
Cc1cccc2nc(NC(=O)c3ccn4cncc4c3)n(C3CCCCN(C(=O)/C=C/CN(C)C)C3)c12 (centres unmarked) [Example 17-63] |  | 0.038 | < 0.001 | 0.003 | 0.003
C=CC(=O)N1CCC[C@H](n2c(NC(=O)c3cccc(C(F)(F)F)c3)nc3cc(C)ccc32)C1 [4, 21-5] |  |  | 0.071 | 0.41 | 
Cc1cccc2nc(NC(=O)c3cn4ccsc4n3)n(C3CCCCN(C(=O)/C=C/CN(C)C)C3)c12 (centres unmarked) [Example 17-51] | 0.65 |  | 0.048 | 1.95 | 0.47
